Results taken from patent publication US10537127B2, “Organic compounds” (GIVAUDAN SA, priority 2013, dated 2020).

Experiment: Beef bouillon taste evaluation by a panel of experienced tasters
Settings: 40 ppb dosed to beef bouillon made from bouillon cubes; versus reference bouillon
Method: A beef bouillon was prepared using bouillon cubes obtained from a local supermarket.
With `O=C(O)CCCCCCCC(=O)NC(Cc1c[nH]c2ccccc12)C(=O)O` (stereo not drawn) [Example 1, 9-((1-Carboxy-2-(1H-indol-3-yl)ethyl)amino)-9-oxononanoic acid] the “taste of the bouillon compared with the reference (panel agreement)” value was “more umami, more salty and more full than the reference”.
With `O=C(O)CCCCCCCC(=O)NCCCC(=O)O` [Example 3, 9-((3-Carboxypropyl)amino)-9-oxononanoic acid] the “taste of the bouillon compared with the reference (panel agreement)” value was “more salty and had more “bite” than the reference”.
In the case of `O=C(O)CCCCCCCC(=O)N1CCCC1C(=O)O` (stereo not drawn) [Example 2, 1-(8-Carboxyoctanoyl)pyrrolidine-2-carboxylic acid], the “taste of the bouillon compared with the reference (panel agreement)” value is reported as “more salt impact, and more umami taste than the reference”.
